In test [1] the test system is JJ5 Breast Cancer cells. The test is described as follows: Binding of EGF-111In-labeled transferrin composition to breast cancer cells. More on the design: species or system human. An excerpt:
For the normal breast cell line HBL-100, 8000 EGFR/cell has been reported. The expression of EGFR in breast cancer cell lines has a reported range of 800 EGFR/cell for MCF-7 cells to 10^6 EGFR/cell for MDA-MB-468 cells. […] Utilizing the Auger electron emitter ^111In was used in the initial experiments to illustrate the utility of the invention using EGF-^111In-labeled transferrin compositions. […] The cells were transferred to a centrifuge tube and centrifuged. The cell pellet was separated from the supernatant and counted in a g-scintillation counter to determine bound (B) and free (F) radioactivity. Non-specific binding was determined by conducting the assay in 100 nM hEGF. […] Internalized fraction was measured by determining the proportion of radioactivity which could not be displaced from the cell surface by 100 nM hEGF. Cell-associated binding (surface-binding and intracellular accumulation) was expressed as a percentage of medium radioactivity bound per mg of cell study protein. […] EGF-^111In-labeled transferrin composition was rapidly bound by the breast cancer cells and retained for at least 24 hours. Over a 24 hour period at 37° C., <8% was lost from the cells in vitro.

Test [2] concerns JJ5 Breast Cancer cells. Kind of test: Growth inhibition assay of EGF-111In-labeled transferrin composition against JJ5 breast cancer cells. The class given is cell-based, human. The settings on record: cultured 4 days. On the procedure:
JJ5 breast cancer cells (prepared from BCBM JJ5) expressing approximately 10^6 epidermal growth factor receptors/cell were incubated with EGF-^111In-labeled transferrin composition, unlabeled hEGF or ^111In-oxine, centrifuged to remove free ligand, then assayed and seeded (10^6 cells/dish) into 35 mm culture dishes.

In test [3] the test system is JJ5 Breast Cancer cells. Kind of test: Cytotoxicity (colony-forming) assay of EGF-111In-labeled transferrin composition against JJ5 breast cancer cells. The settings on record: 14 days. The class given is cell-based, human. On the procedure:
JJ5 breast cancer cells were incubated with increasing amounts EGF-^111In-labeled transferrin composition or ^111In-oxine, centrifuged to remove free ligand, assayed and then seeded into 50 mm culture dishes. […] The growth medium was removed and the colonies were stained with methylene blue (1% in a 1:1 mixture of ethanol and water) then washed twice.
Using a colony-forming assay, the radiotoxicity of internalization for JJ5 breast cancer cells was evaluated.

Test [4] deals with JJ5 Breast Cancer cells. Particulars: cultured 4 days.
Procedure: The number of cells seeded was varied from 3×10^4 to 3×10^6 cells to obtain approximately 350 viable colonies/dish taking into account the plating efficiency and the expected level of cytotoxicity. Control dishes contained JJ5 breast cancer cells which were incubated with normal saline. Growth medium was added and the cells were cultured at 37° C./5% CO2 for 4 days. The growth medium was removed and the colonies were stained with methylene blue (1% in a 1:1 mixture of ethanol and water) then washed twice. The number of colonies per dish was counted using a manual colony counter (Manostat Corp). The plating efficiency was calculated by dividing the number of colonies observed by the number of cells seeded in each dish.

Where two headings read alike, the source gives them in different places.

For the compound “EGF-^111In-labeled transferrin composition”, the “time retained by the breast cancer cells” value in the test with JJ5 Breast Cancer cells [1] (37° C.) is “at least 24 hours”. For the same compound, the “affinity constant for binding to JJ5 cells” value in the test with JJ5 Breast Cancer cells [1] (37° C., 30 minutes, non-specific binding in 100 nM hEGF) came to 8e+08 L/mol. The “number of binding sites” value with JJ5 Breast Cancer cells [1] (JJ5 cells) is 2.7×10^6. Also, in the test on JJ5 Breast Cancer cells [1] (over a 24 hour period at 37° C.), the “111In radioactivity lost from the cells in vitro” value is on record as less than 8%. In addition, the “growth inhibition of the JJ5 cells compared to the medium control” value with JJ5 Breast Cancer cells [2] (3.4 pCi/cell) is 83%. Also, the “reduction in cell survival” value in the test with JJ5 Breast Cancer cells [3] (8 pCi/cell) is 99%.
`COc1cccc2c1C(=O)c1c(O)c3c(c(O)c1C2=O)C[C@@](O)(C(=O)CO)C[C@@H]3O[C@H]1C[C@H](N)[C@H](O)[C@H](C)O1` [Doxorubicin]: in the test on JJ5 Breast Cancer cells [4], the “growth inhibition of the JJ5 cells compared to the medium control” value was 95%.
For the compound `[In+3].[O-]c1cccc2cccnc12.[O-]c1cccc2cccnc12.[O-]c1cccc2cccnc12` [^111In-oxine, reference compound], the “growth inhibition of the JJ5 cells compared to the medium control” value with JJ5 Breast Cancer cells [2] (3.5 pCi/cell) was determined as 91%. In addition, in the test with JJ5 Breast Cancer cells [3] (at <6 pCi/cell), the cell killing entry was “greater than 99%”.
